In ChEMBL document CHEMBL2146406, “DNA-binding study of anthraquinone derivatives using chemometrics methods” (Eur J Med Chem, 2011):
The source made the active and inactive calls. The rule behind the calls is not given here.

Tests used:
Type in all cases: nucleic-acid assay
Details in all cases: Bos taurus
Nucleic Acid [1] = assay: Binding affinity to calf thymus DNA assessed as partial intercalation
Nucleic Acid [2] = assay: Binding affinity to calf thymus DNA at DNA/compound ratio 0.1 to 2 at pH 7 by measuring DNA viscosity
Nucleic Acid [3] = assay: Binding affinity to calf thymus DNA in Brittone-Robinson buffer at 50 uM at pH 7 by UV-vis spectroscopy
Nucleic Acid [4] = assay: Binding affinity to calf thymus DNA in Brittone-Robinson buffer at 50 uM by UV-vis spectroscopy in presence of denatured DNA
Nucleic Acid [5] = assay: Binding affinity to calf thymus DNA at 50 uM by circular dichroism spectra
Nucleic Acid [6] = assay: Binding affinity to calf thymus DNA assessed as hydrogen bonding
Nucleic Acid [7] = assay: Binding affinity to calf thymus DNA in Brittone-Robinson buffer at 50 uM at pH 7 in presence of NaCl by UV-vis spectroscopy
Nucleic Acid [8] = assay: Binding affinity to calf thymus DNA in Brittone-Robinson buffer at 50 uM at pH 3 by UV-vis spectroscopy
Nucleic Acid [9] = assay: Binding affinity to calf thymus DNA in Brittone-Robinson buffer at 50 uM by UV-vis spectroscopy in presence of native DNA
Nucleic Acid [10] = assay: Ratio of danthron Kb to quinizarin Kb for calf thymus DNA

Kb (Nucleic Acid [1]) | Activity (Nucleic Acid [2]) | Activity (Nucleic Acid [3]) | Activity (Nucleic Acid [4]) | Activity (Nucleic Acid [5]) | Kb (Nucleic Acid [6]) [×10⁴ /M] | Activity (Nucleic Acid [7]) | Activity (Nucleic Acid [8]) | Activity (Nucleic Acid [9]) | Ratio (Nucleic Acid [10]) | Structure (SMILES)
3.2 ×10⁷ /M | Active | Active | Active | Active | 1.66 | Active | inactive | Active | 5 | O=C1c2ccccc2C(=O)c2c(O)ccc(O)c21
7.2 ×10⁶ /M | Active | Active | Active | Active | 3.6 | Active | inactive | Active |  | O=C1c2cccc(O)c2C(=O)c2c(O)cccc21
